Data: patent publication US20180118588A1, “CONTROL OF BACTERIAL ACTIVITY, SUCH AS IN SEWERS AND WASTEWATER TREATMENT SYSTEMS” (THE UNIVERSITY OF QUEENSLAND, priority 2010, published 2018)
Read-outs that look alike come from different tables or passages of the source.

What was measured:
anaerobic sewer biofilms = experiment: Viability tests with biofilms on carriers from rising main sewer reactors (cell killing capacity, Table 2, FIG. 7-9); type: cell-based; settings: for Inactivation of biofilm cells: agent by itself
Procedure: In these experiments, viability tests were carried out with biofilms on carriers from rising main sewer reactors. […]

[1] = test system: methanogenic archaea (MA) in sewer biofilm; settings: Exp. I
[2] = test system: sulfate reducing bacteria (SRB) in sewer biofilm; settings: Exp. I
[3] = test system: methanogenic archaea (MA) in sewer biofilm; settings: Exp. IV
[4] = test system: sulfate reducing bacteria (SRB) in sewer biofilm; settings: Exp. II
[5] = test system: sulfate reducing bacteria (SRB) in sewer biofilm; settings: Exp. IV
sewer biofilm cells = settings: Exp. III; FNA dosed in the reactors
Excerpt: (§1) Experiment III aimed to achieve complete inhibition on both sulfide and methane production.

[6] = test system: sulfate reducing bacteria (SRB) in sewer biofilm; settings: Exp. III
Excerpt: as §1

[7] = test system: methanogenic archaea (MA) in sewer biofilm; settings: Exp. III
Excerpt: as §1

[8] = test system: methanogenic archaea (MA) in sewer biofilm; settings: Exp. II
[9] = in the presence of nitrite, continuous dosing 24 days
[10] = nitrite 20 mg-N/L every 30 minutes for 24 days, pH 8.6~9.2 after dosing
[11] = FNA 0.05, 0.08, 0.17 mg-N/L, single dose, 6 hour, pH 6.2
[12] = FNA 0.18 and 0.36 mg-N/L, 24 hours, 4 dosages
[13] = one month after stopping FNA dosage

[Na+].[OH-] [caustic shock, caustic soda, reference compound]
Inactivation of biofilm cells (anaerobic sewer biofilms): significantly inactivating biofilm cells

OO [H2O2, hydrogen peroxide, reference compound]
Effect on biocidal effect of acidified nitrite (anaerobic sewer biofilms; H2O2 30 mg/L with nitrite 100 mgN/L at pH 6, 6 hr): enhanced the biocidal effect of acidified nitrite

O=NO [nitrite]
Methane accumulation in the reactor [1, 9]: No sulfide and methane accumulation | Residual activity after treatment: MA [1, 10]: MA: 0.1 mg- mg-COD/L-hr | Sulfide accumulation in the reactor [2, 9]: No sulfide and methane accumulation | Residual activity after treatment: SRB [2, 10]: SRB: 1 mg-S/L- mg-S/L-hr

O=NO [FNA, free nitrous acid]
Methane production by sewer biofilm ([3]; one month after terminating dosage, 828 m downstream vs wet well): ceased to produce methane | Inhibition: methane production ([3]; real sewer, nitrite 100 mgN/L, pH 6.0, FNA 0.24 mgN/L, 33 hours over three days): Negligible sulfide | Inhibition: sulfide production [4, 11]: Negligible sulfide | Time to recover to 50% (SRB) ([4]; R4, highest FNA (0.17 mg-N/L), 6 hour contact): 16 days | Recovery SRB ([4]; after 1 month): SRB: 90%; | Inactivation of biofilm cells (anaerobic sewer biofilms): significantly inactivating biofilm cells | Microbial killing, ranking (FIG. 7) (anaerobic sewer biofilms; nitrite 100 mgN/L, pH 6, FNA 0.26 mgN/L, 6 hr, H2O2 30 mg/L, O2 6 mg/L, caustic pH 10.5 for 2 hr after FNA): followed by FNA→Caustic, FNA+O2, and FNA | Sulfide production ([5]; Day 14): zero production | Sulfide production, of the initial level ([5]; after 7 days): 50% | Recovery SRB ([5]; in three weeks): SRB: 100% in | Cells in the biofilm killed (FIG. 4B) (sewer biofilm cells): over 90% | Inhibition: sulfide production [6, 12]: Negligible sulfide | Recovery SRB ([6]; in two months): SRB: 70-80% in | SRB recovery [6, 13]: about 70% | Inhibition: methane production [7, 12]: Negligible sulfide | Recovery MA ([7]; in two months): MA: 40~60% | Methanogens activity recovery [7, 13]: 20% | Inhibition: methane production [8, 11]: Negligible sulfide | Recovery MA ([8]; after 1 month): MA: 30~50%. | Methane after the FNA dosing ([8]; all FNA concentrations, 6 hour contact): below 20%
